Structures can show the parent of a compound that is named as a salt.
How the values were obtained:
TP receptor = molecular target: T1, TP receptor (Homo sapiens, UniProt P21731); assay: human TP calcium mobilisation assay (CHO-K1 cells, U46619, FLIPR); format: cell-based; settings: free bases or sodium salts; read-out: functional pKi, human TP calcium mobilisation assay (converted)
T1 construct: expressed in transfected cells; host or cells: CHO-K1
T1 sequence (P21731 1-343): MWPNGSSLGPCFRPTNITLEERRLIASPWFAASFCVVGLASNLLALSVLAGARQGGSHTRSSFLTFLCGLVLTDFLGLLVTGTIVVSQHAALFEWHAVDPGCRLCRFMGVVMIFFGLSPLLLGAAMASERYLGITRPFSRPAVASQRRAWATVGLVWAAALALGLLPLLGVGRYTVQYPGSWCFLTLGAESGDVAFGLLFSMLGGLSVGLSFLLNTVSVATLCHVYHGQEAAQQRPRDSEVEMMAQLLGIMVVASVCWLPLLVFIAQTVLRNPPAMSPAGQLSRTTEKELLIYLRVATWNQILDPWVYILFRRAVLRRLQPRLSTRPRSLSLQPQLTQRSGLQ
Description: To determine if a compound has agonist or antagonist activity at the TP receptor a functional calcium mobilisation assay may be performed. Briefly, the antagonist properties of compounds are assessed by their ability to inhibit the mobilisation of intracellular calcium ([Ca^2+]i) in response to activation of TP receptors by the stable TXA2 mimetic U46619 (9,11-dideoxy-11α,9α-epoxy-methanoprostaglandin F2 α; commercially available from e.g Sigma-Aldrich). Increasing concentrations of antagonist reduce the amount of calcium that a given concentration of U46619 can mobilise. The net effect is to displace the U46619 concentration-effect curve. The amount of calcium produced is assessed using a calcium-sensitive fluorescent dye such as Fluo-4, AM and a suitable instrument such as a Fluorimetric Imaging Plate Reader (FLIPR). Increasing amounts of [Ca^2+]i produced by receptor activation increase the amount of fluorescence produced by the dye and give rise to an increasing signal. The signal may be detected using the FLIPR instrument and the data generated may be analysed with suitable curve-fitting software. The agonist activity of the compounds are determined by their ability to cause an increase in intracellular mobilisation in the absence of U46619.
(§1) The human TP calcium mobilisation assay utilises Chinese hamster ovary-K1 (CHO-K1) cells into which a stable (pCIN; BioTechniques 20 (1996): 102-110) vector containing TP cDNA has previously been transfected. Cells are cultured in suitable flasks containing culture medium such as DMEM:F-12 supplemented with 10% v/v foetal calf serum, 2 mM L-glutamine, 0.25 mg/ml geneticin, 100 μM flurbiprofen and 10 μg/ml puromycin.
(§2) For assay, cells are harvested using a proprietary reagent that dislodges cells such as Versene. Cells are re-suspended in a suitable quantity of fresh culture media for introduction into a 96-well plate. Following incubation for 24 hours at 37° C. the culture media is replaced with a medium containing Fluo-4 and the detergent pluronic acid, and a further incubation takes place. Concentrations of compounds are then added to the plate in order to construct concentration-effect curves. This may be performed on the FLIPR in order to assess the agonist properties of the compounds. Concentrations of U46619 are then added to the plate in order to assess the antagonist properties of the compounds.
The data so generated may be analysed by means of a computerised curve-fitting routine. The concentration of compound that elicits a half-maximal inhibition of the calcium mobilisation induced by U46619 (plC50) may then be estimated, and the percentage activation caused by the compounds directly can be used to determine if there is any agonism present.

EP3 receptors = molecular target: T2, EP3 receptors (Homo sapiens, UniProt P43115); assay: human EP3 calcium mobilisation assay (CHO-K1 cells, PGE2, FLIPR); format: cell-based; settings: free bases or sodium salts; averages of a number of experiments; read-out: functional pKi value, human EP3 calcium mobilisation assay (converted)
T2 construct: expressed in transfected cells; host or cells: CHO-K1
T2 sequence (P43115 1-390): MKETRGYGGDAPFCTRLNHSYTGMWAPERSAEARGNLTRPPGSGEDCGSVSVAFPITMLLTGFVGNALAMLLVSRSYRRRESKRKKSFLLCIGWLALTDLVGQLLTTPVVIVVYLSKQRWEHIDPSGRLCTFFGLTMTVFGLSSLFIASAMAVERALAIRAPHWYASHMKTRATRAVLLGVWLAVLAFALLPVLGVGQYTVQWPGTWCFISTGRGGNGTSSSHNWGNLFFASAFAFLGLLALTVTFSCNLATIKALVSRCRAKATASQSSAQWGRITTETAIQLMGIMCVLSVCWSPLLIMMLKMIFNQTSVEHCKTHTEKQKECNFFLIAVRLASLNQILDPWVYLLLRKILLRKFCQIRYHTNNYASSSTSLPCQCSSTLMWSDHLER
Description: Briefly, the antagonist properties of compounds are assessed by their ability to inhibit the mobilisation of intracellular calcium ([Ca^2+]i) in response to activation of EP1 or EP3 receptors by the natural agonist hormone prostaglandin E2 (PGE2). Increasing concentrations of antagonist reduce the amount of calcium that a given concentration of PGE2 can mobilise. The net effect is to displace the PGE2 concentration-effect curve to higher concentrations of PGE2. The amount of calcium produced is assessed using a calcium-sensitive fluorescent dye such as Fluo-4, AM and a suitable instrument such as a Fluorimetric Imaging Plate Reader (FLIPR). Increasing amounts of [Ca^2+]i produced by receptor activation increase the amount of fluorescence produced by the dye and give rise to an increasing signal. The signal may be detected using the FLIPR instrument and the data generated may be analysed with suitable curve-fitting software.
as §1, with “human EP1 or EP3” for “human TP”, “assay (hereafter referred to as ‘the calcium assay’)” for “assay”, “containing either EP1 or EP3” for “containing TP”, “10 µg/ml” for “10 μg/ml”
as §2, with “384-well” for “96-well”, “PGE2” for “U46619”
The data so generated may be analysed by means of a computerised curve-fitting routine. The concentration of compound that elicits a half-maximal inhibition of the calcium mobilisation induced by PGE2 (pIC50) may then be estimated.

Ki (TP receptor)	Ki (EP3 receptors)	Compound
≤ 31.6 nM	–	O=C(O)c1cccc(Cc2cc(Cl)ccc2OCc2ccc(Cl)cc2F)n1 [Example 3, Sodium 6-[(5-chloro-2-{[(4-chloro-2-fluorophenyl)methyl]oxy}phenyl)methyl]-2-pyridinecarboxylate]
< 1000 nM	> 10000 nM	O=C(O)c1cccc(Cc2cc(Cl)ccc2OCc2ccc(F)cc2F)n1 [Example 4, Sodium 6-[(5-chloro-2-{[(2,4-difluorophenyl)methyl]oxy}phenyl)methyl]-2-pyridinecarboxylate]
< 1000 nM	> 10000 nM	O=C(O)c1cccc(Cc2cc(Cl)ccc2OCc2cc(F)c(F)cc2F)n1 [Example 10, Sodium 6-[(5-chloro-2-{[(2,4,5-trifluorophenyl)methyl]oxy}phenyl)methyl]-2-pyridinecarboxylate]
< 1000 nM	> 10000 nM	O=C(O)c1cccc(Cc2cc(Cl)ccc2OCc2ccc(F)cc2Cl)n1 [Example 11, Sodium 6-[(5-chloro-2-{[(2-chloro-4-fluorophenyl)methyl]oxy}phenyl)methyl]-2-pyridinecarboxylate]
≤ 31.6 nM	–	O=C(O)c1cccc(Cc2cc(Cl)ccc2OCc2ccc(Cl)cc2Cl)n1 [Example 12, Sodium 6-[(5-chloro-2-{[(2,4-dichlororophenyl)methyl]oxy}phenyl)methyl]-2-pyridinecarboxylate]
< 1000 nM	–	O=C(O)c1cccc(Cc2cc(Cl)ccc2OCC2CCCC2)n1 [Example 14, Sodium 6-({5-chloro-2-[(cyclopentylmethyl)oxy]phenyl}methyl)-2-pyridinecarboxylate]
< 1000 nM	> 10000 nM	O=C(NS(=O)(=O)c1ccccc1)c1cccc(Cc2cc(Cl)ccc2OCc2ccc(Cl)cc2F)n1 [Example 28, 6-[(5-chloro-2-{[(4-chloro-2-fluorophenyl)methyl]oxy}phenyl)-methyl]-N-(phenylsulphonyl)-2-pyridinecarboxamide]
> 1000 nM	> 10000 nM	CS(=O)(=O)NC(=O)c1cccc(Cc2cc(Cl)ccc2OCc2ccc(Cl)cc2F)n1 [Example 29, 6-[(5-Chloro-2-{[(4-chloro-2-fluorophenyl)methyl]oxy}-phenyl)methyl]-N-(methylsulphonyl)-2-pyridinecarboxamide]
< 1000 nM	> 10000 nM	CCCS(=O)(=O)NC(=O)c1cccc(Cc2cc(Cl)ccc2OCc2ccc(Cl)cc2F)n1 [Example 30, 6-[(5-Chloro-2-{[(4-chloro-2-fluorophenyl)methyl]oxy}-phenyl)methyl]-N-(propylsulphonyl)-2-pyridinecarboxamide]
> 1000 nM	–	O=C(NS(=O)(=O)c1ccc(Br)cc1)c1cccc(Cc2cc(Cl)ccc2OCc2ccc(Cl)cc2F)n1 [Example 33, N-[(4-Bromophenyl)sulphonyl]-6-[(5-chloro-2-{[(4-chloro-2-fluorophenyl)methyl]oxy}phenyl)-methyl]-2-pyridinecarboxamide]
≤ 31.6 nM	–	O=C(NS(=O)(=O)c1cccc(Br)c1)c1cccc(Cc2cc(Cl)ccc2OCc2ccc(Cl)cc2F)n1 [Example 34, N-[(3-Bromophenyl)sulphonyl]-6-[(5-chloro-2-{[(4-chloro-2-fluorophenyl)methyl]oxy}phenyl)-methyl]-2-pyridinecarboxamide]
< 1000 nM	> 10000 nM	Cc1noc(C)c1S(=O)(=O)NC(=O)c1cccc(Cc2cc(Cl)ccc2OCc2ccc(Cl)cc2F)n1 [Example 36, 6-[(5-Chloro-2-{[(4-chloro-2-fluorophenyl)methyl]oxy}-phenyl)methyl]-N-[(3,5-dimethyl-4-isoxazolyl)sulphonyl]-2-pyridinecarboxamide]
≤ 31.6 nM	–	Fc1cc(Cl)ccc1COc1ccc(Cl)cc1Cc1cccc(-c2nnn[nH]2)n1 [Example 38, 2-[(5-Chloro-2-{[(4-chloro-2-fluorophenyl)methyl]oxy}phenyl)-methyl]-6-(1H-tetrazol-5-yl)pyridine]
≤ 31.6 nM	–	Cc1ccc(C(=O)O)nc1Cc1cc(Cl)ccc1OCc1ccc(Cl)cc1F [Example 39, 6-[(5-Chloro-2-{[(4-chloro-2-fluorophenyl)methyl]oxy}-phenyl)methyl]-5-methyl-2-pyridinecarboxylic acid, sodium salt]
